Columns and labels:
S. pneumoniae D39V [1] = experiment: fitness (endpoint OD595 vs no drug) (fraction); higher = more growth
Outline: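 In 384-well plates at 37 °C, cultures began at OD595 0.01 in 30 µl, with 55 µl used for S. pneumoniae. OD595 readings every 30 min for 14 h were corrected by the first reading. Fitness divides the stationary-phase transition optical density by the robust mean of no-drug control wells. The result is capped at 1.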

B. subtilis 168 = experiment: Bliss interaction score (quartile over a dose matrix) (fitness difference); higher = more antagonism (negative = synergy)
Outline: (§1)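 Quartiles summarise the Bliss score over technical, biological and donor/recipient replicates, where the score is observed minus expected fitness under a product model. Expected fitness uses single-drug values inferred from combination data. Fitness is OD595 at entry into stationary phase over the plate's robust no-drug mean, capped at 1.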

S. aureus DSM 20231 = experiment: as above
Outline: as §1

S. aureus Newman = experiment: as above
Outline: as §1

S. pneumoniae D39V [2] = experiment: as above
Outline: as §1

[3] = first compound 1.285 µg/mL, partner 4 µg/mL
[4] = first compound 1.285 µg/mL, partner 8 µg/mL
[5] = first compound 2.57 µg/mL, partner 4 µg/mL
[6] = first compound 2.57 µg/mL, partner 8 µg/mL
[7] = first compound 5.14 µg/mL, partner 4 µg/mL, one replicate
[8] = first compound 5.14 µg/mL, partner 8 µg/mL, one replicate
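Throughout, for Bliss interaction score (quartile over a dose matrix): first quartile when negative (synergy) and third quartile when positive (antagonism).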

O=C1CN(/N=C/c2ccc([N+](=O)[O-])o2)C(=O)N1 [Nitrofurantoin] + CN(N=O)C(=O)N[C@@H](C=O)[C@@H](O)[C@H](O)[C@H](O)CO [Streptozotocin]
fitness (S. pneumoniae D39V [1]; first compound 1.285 µg/mL, partner 1.2 µg/mL): 0.928 | fitness (S. pneumoniae D39V [1]; first compound 1.285 µg/mL, partner 2.4 µg/mL): 0.94 | fitness (S. pneumoniae D39V [1]; first compound 1.285 µg/mL, partner 4.8 µg/mL): 0.939 | fitness (S. pneumoniae D39V [1]; first compound 2 µg/mL, partner 1.2 µg/mL, one replicate): 0.954 | fitness (S. pneumoniae D39V [1]; first compound 2 µg/mL, partner 2.4 µg/mL, one replicate): 0.961 | fitness (S. pneumoniae D39V [1]; first compound 2 µg/mL, partner 4.8 µg/mL, one replicate): ≥ 1 | fitness (S. pneumoniae D39V [1]; first compound 2.57 µg/mL, partner 1.2 µg/mL): 0.939 | fitness (S. pneumoniae D39V [1]; first compound 2.57 µg/mL, partner 2.4 µg/mL): 0.952 | fitness (S. pneumoniae D39V [1]; first compound 2.57 µg/mL, partner 4.8 µg/mL): 0.957 | fitness (S. pneumoniae D39V [1]; first compound 4 µg/mL, partner 1.2 µg/mL, one replicate): 0.959 | fitness (S. pneumoniae D39V [1]; first compound 4 µg/mL, partner 2.4 µg/mL, one replicate): ≥ 1 | fitness (S. pneumoniae D39V [1]; first compound 4 µg/mL, partner 4.8 µg/mL, one replicate): ≥ 1 | fitness (S. pneumoniae D39V [1]; first compound 5.14 µg/mL, partner 1.2 µg/mL, one replicate): 0.86 | fitness (S. pneumoniae D39V [1]; first compound 5.14 µg/mL, partner 2.4 µg/mL, one replicate): 0.919 | fitness (S. pneumoniae D39V [1]; first compound 5.14 µg/mL, partner 4.8 µg/mL, one replicate): 0.871 | fitness (S. pneumoniae D39V [1]; first compound 8 µg/mL, partner 1.2 µg/mL, one replicate): 0.818 | fitness (S. pneumoniae D39V [1]; first compound 8 µg/mL, partner 2.4 µg/mL, one replicate): 0.842 | fitness (S. pneumoniae D39V [1]; first compound 8 µg/mL, partner 4.8 µg/mL, one replicate): ≥ 1 | Bliss interaction score (B. subtilis 168): 0.0585 | Bliss interaction score (S. aureus DSM 20231): -0.034 | Bliss interaction score (S. aureus Newman): 0.0906 | Bliss interaction score (S. pneumoniae D39V [2]): 0.0714

O=C1CN(/N=C/c2ccc([N+](=O)[O-])o2)C(=O)N1 [Nitrofurantoin] + CN[C@@H]1[C@H](O)[C@H](NC)[C@H]2O[C@@]3(O)C(=O)C[C@@H](C)O[C@H]3O[C@@H]2[C@H]1O [Spectinomycin]
fitness (S. pneumoniae D39V [1]; [3]): 0.96 | fitness (S. pneumoniae D39V [1]; [4]): 0.889 | fitness (S. pneumoniae D39V [1]; first compound 1.285 µg/mL, partner 16 µg/mL): 0.829 | fitness (S. pneumoniae D39V [1]; first compound 2 µg/mL, partner 4 µg/mL, one replicate): 0.966 | fitness (S. pneumoniae D39V [1]; first compound 2 µg/mL, partner 8 µg/mL, one replicate): 0.892 | fitness (S. pneumoniae D39V [1]; [5]): 0.935 | fitness (S. pneumoniae D39V [1]; [6]): 0.917 | fitness (S. pneumoniae D39V [1]; first compound 2.57 µg/mL, partner 16 µg/mL): 0.829 | fitness (S. pneumoniae D39V [1]; first compound 4 µg/mL, partner 4 µg/mL, one replicate): 0.948 | fitness (S. pneumoniae D39V [1]; first compound 4 µg/mL, partner 8 µg/mL, one replicate): 0.864 | fitness (S. pneumoniae D39V [1]; [7]): 0.859 | fitness (S. pneumoniae D39V [1]; [8]): 0.865 | fitness (S. pneumoniae D39V [1]; first compound 5.14 µg/mL, partner 16 µg/mL, one replicate): 0.793 | fitness (S. pneumoniae D39V [1]; first compound 8 µg/mL, partner 4 µg/mL, one replicate): 0.895 | fitness (S. pneumoniae D39V [1]; first compound 8 µg/mL, partner 8 µg/mL, one replicate): 0.879 | Bliss interaction score (B. subtilis 168): -0.0552 | Bliss interaction score (S. aureus DSM 20231): -0.0743 | Bliss interaction score (S. aureus Newman): -0.0511 | Bliss interaction score (S. pneumoniae D39V [2]): 0.0652

O=C1CN(/N=C/c2ccc([N+](=O)[O-])o2)C(=O)N1 [Nitrofurantoin] + CN[C@@H]1[C@H](O[C@H]2[C@H](O[C@H]3[C@H](O)[C@@H](O)[C@H](N=C(N)N)[C@@H](O)[C@@H]3N=C(N)N)O[C@@H](C)[C@]2(O)C=O)O[C@@H](CO)[C@H](O)[C@H]1O [Streptomycin]
fitness (S. pneumoniae D39V [1]; first compound 1.285 µg/mL, partner 2 µg/mL): 0.956 | fitness (S. pneumoniae D39V [1]; [3]): 0.953 | fitness (S. pneumoniae D39V [1]; [4]): 0.927 | fitness (S. pneumoniae D39V [1]; first compound 2 µg/mL, partner 2 µg/mL, one replicate): 0.965 | fitness (S. pneumoniae D39V [1]; first compound 2 µg/mL, partner 4 µg/mL): 0.956 | fitness (S. pneumoniae D39V [1]; first compound 2 µg/mL, partner 8 µg/mL): 0.884 | fitness (S. pneumoniae D39V [1]; first compound 2 µg/mL, partner 16 µg/mL, one replicate): 0.743 | fitness (S. pneumoniae D39V [1]; first compound 2.57 µg/mL, partner 2 µg/mL): 0.938 | fitness (S. pneumoniae D39V [1]; [5]): 0.921 | fitness (S. pneumoniae D39V [1]; [6]): 0.918 | fitness (S. pneumoniae D39V [1]; first compound 4 µg/mL, partner 2 µg/mL, one replicate): 0.948 | fitness (S. pneumoniae D39V [1]; first compound 4 µg/mL, partner 4 µg/mL): 0.936 | fitness (S. pneumoniae D39V [1]; first compound 4 µg/mL, partner 8 µg/mL): 0.887 | fitness (S. pneumoniae D39V [1]; first compound 4 µg/mL, partner 16 µg/mL, one replicate): 0.753 | fitness (S. pneumoniae D39V [1]; first compound 5.14 µg/mL, partner 2 µg/mL, one replicate): 0.86 | fitness (S. pneumoniae D39V [1]; [7]): 0.8 | fitness (S. pneumoniae D39V [1]; [8]): 0.809 | fitness (S. pneumoniae D39V [1]; first compound 8 µg/mL, partner 2 µg/mL, one replicate): 0.76 | fitness (S. pneumoniae D39V [1]; first compound 8 µg/mL, partner 4 µg/mL): 0.768 | fitness (S. pneumoniae D39V [1]; first compound 8 µg/mL, partner 8 µg/mL): 0.743 | fitness (S. pneumoniae D39V [1]; first compound 8 µg/mL, partner 16 µg/mL, one replicate): 0.585 | Bliss interaction score (B. subtilis 168): -0.0807 | Bliss interaction score (S. aureus DSM 20231): -0.0532 | Bliss interaction score (S. aureus Newman): -0.0496 | Bliss interaction score (S. pneumoniae D39V [2]): 0.0583

O=C1CN(/N=C/c2ccc([N+](=O)[O-])o2)C(=O)N1 [Nitrofurantoin] + CN[C@H](CC(C)C)C(=O)N[C@H]1C(=O)N[C@@H](CC(N)=O)C(=O)N[C@H]2C(=O)N[C@H]3C(=O)N[C@H](C(=O)N[C@H](C(=O)O)c4cc(O)cc(O)c4-c4cc3ccc4O)[C@H](O)c3ccc(c(Cl)c3)Oc3cc2cc(c3O[C@@H]2O[C@H](CO)[C@@H](O)[C@H](O)[C@H]2O[C@H]2C[C@](C)(N)[C@H](O)[C@H](C)O2)Oc2ccc(cc2Cl)[C@H]1O [Vancomycin]
fitness (S. pneumoniae D39V [1]; first compound 1.285 µg/mL, partner 0.125 µg/mL): 0.969 | fitness (S. pneumoniae D39V [1]; first compound 1.285 µg/mL, partner 0.25 µg/mL): 0.611 | fitness (S. pneumoniae D39V [1]; first compound 1.285 µg/mL, partner 0.5 µg/mL): 0.0954 | fitness (S. pneumoniae D39V [1]; first compound 2 µg/mL, partner 0.03125 µg/mL): 0.926 | fitness (S. pneumoniae D39V [1]; first compound 2 µg/mL, partner 0.0625 µg/mL): 0.882 | fitness (S. pneumoniae D39V [1]; first compound 2 µg/mL, partner 0.125 µg/mL): 0.748 | fitness (S. pneumoniae D39V [1]; first compound 2.57 µg/mL, partner 0.125 µg/mL): 0.973 | fitness (S. pneumoniae D39V [1]; first compound 2.57 µg/mL, partner 0.25 µg/mL): 0.653 | fitness (S. pneumoniae D39V [1]; first compound 2.57 µg/mL, partner 0.5 µg/mL): 0.0768 | fitness (S. pneumoniae D39V [1]; first compound 4 µg/mL, partner 0.03125 µg/mL): 0.959 | fitness (S. pneumoniae D39V [1]; first compound 4 µg/mL, partner 0.0625 µg/mL): 0.959 | fitness (S. pneumoniae D39V [1]; first compound 4 µg/mL, partner 0.125 µg/mL): 0.851 | fitness (S. pneumoniae D39V [1]; first compound 5.14 µg/mL, partner 0.125 µg/mL, one replicate): 0.965 | fitness (S. pneumoniae D39V [1]; first compound 5.14 µg/mL, partner 0.25 µg/mL, one replicate): 0.446 | fitness (S. pneumoniae D39V [1]; first compound 5.14 µg/mL, partner 0.5 µg/mL, one replicate): 0.118 | fitness (S. pneumoniae D39V [1]; first compound 8 µg/mL, partner 0.03125 µg/mL): 0.892 | fitness (S. pneumoniae D39V [1]; first compound 8 µg/mL, partner 0.0625 µg/mL): 0.894 | Bliss interaction score (B. subtilis 168): 0.0308 | Bliss interaction score (S. aureus DSM 20231): 0.0253 | Bliss interaction score (S. aureus Newman): 0.0534 | Bliss interaction score (S. pneumoniae D39V [2]): 0.142

O=C1CN(/N=C/c2ccc([N+](=O)[O-])o2)C(=O)N1 [Nitrofurantoin] + CO[C@H]1/C=C/O[C@@]2(C)Oc3c(C)c(O)c4c(O)c(c(/C=N/N5CCN(C)CC5)c(O)c4c3C2=O)NC(=O)/C(C)=C\C=C\[C@H](C)[C@H](O)[C@@H](C)[C@@H](O)[C@@H](C)[C@H](OC(C)=O)[C@@H]1C [Rifampicin]
fitness (S. pneumoniae D39V [1]; first compound 1.285 µg/mL, partner 0.05 µg/mL): 0.825 | fitness (S. pneumoniae D39V [1]; first compound 1.285 µg/mL, partner 0.1 µg/mL): 0.372 | fitness (S. pneumoniae D39V [1]; first compound 1.285 µg/mL, partner 0.2 µg/mL): 0.129 | fitness (S. pneumoniae D39V [1]; first compound 2 µg/mL, partner 0.025 µg/mL, one replicate): 0.873 | fitness (S. pneumoniae D39V [1]; first compound 2 µg/mL, partner 0.05 µg/mL): 0.789 | fitness (S. pneumoniae D39V [1]; first compound 2 µg/mL, partner 0.2 µg/mL, one replicate): 0 | fitness (S. pneumoniae D39V [1]; first compound 2.57 µg/mL, partner 0.05 µg/mL): 0.798 | fitness (S. pneumoniae D39V [1]; first compound 2.57 µg/mL, partner 0.1 µg/mL): 0.353 | fitness (S. pneumoniae D39V [1]; first compound 2.57 µg/mL, partner 0.2 µg/mL): 0.166 | fitness (S. pneumoniae D39V [1]; first compound 4 µg/mL, partner 0.025 µg/mL, one replicate): 0.85 | fitness (S. pneumoniae D39V [1]; first compound 4 µg/mL, partner 0.05 µg/mL): 0.781 | fitness (S. pneumoniae D39V [1]; first compound 4 µg/mL, partner 0.2 µg/mL, one replicate): 0 | fitness (S. pneumoniae D39V [1]; first compound 5.14 µg/mL, partner 0.05 µg/mL, one replicate): 0.806 | fitness (S. pneumoniae D39V [1]; first compound 5.14 µg/mL, partner 0.1 µg/mL, one replicate): 0.369 | fitness (S. pneumoniae D39V [1]; first compound 5.14 µg/mL, partner 0.2 µg/mL, one replicate): 0.171 | fitness (S. pneumoniae D39V [1]; first compound 8 µg/mL, partner 0.025 µg/mL, one replicate): 0.782 | fitness (S. pneumoniae D39V [1]; first compound 8 µg/mL, partner 0.05 µg/mL): 0.668 | fitness (S. pneumoniae D39V [1]; first compound 8 µg/mL, partner 0.1 µg/mL): 0.351 | fitness (S. pneumoniae D39V [1]; first compound 8 µg/mL, partner 0.2 µg/mL, one replicate): 0 | Bliss interaction score (B. subtilis 168): -0.0448 | Bliss interaction score (S. aureus DSM 20231): -0.0228 | Bliss interaction score (S. aureus Newman): -0.0316 | Bliss interaction score (S. pneumoniae D39V [2]): -0.117
